These results are taken from patent publication US12180192B2, “Modulators of THR-β and methods of use thereof” (ALIGOS THERAPEUTICS, INC., priority 2019, dated 2024).

For test [1], the target named is T1, human thyroid receptor beta ligand-binding domain (LBD) (Homo sapiens, UniProt P10828).
T1 construct: purchased Invitrogen
T1 sequence (P10828 217-461 limits assumed): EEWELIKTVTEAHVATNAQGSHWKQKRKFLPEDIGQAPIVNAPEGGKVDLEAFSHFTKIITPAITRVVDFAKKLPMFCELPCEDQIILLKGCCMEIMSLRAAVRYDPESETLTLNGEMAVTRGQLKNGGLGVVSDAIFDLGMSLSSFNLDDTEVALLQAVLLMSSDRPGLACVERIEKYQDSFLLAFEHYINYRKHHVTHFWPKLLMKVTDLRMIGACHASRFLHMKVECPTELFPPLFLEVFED
The experiment in a line: TR-FRET thyroid receptor beta coactivator assay (THR biochemical assay, Assay 1). The note with it: for EC50: THR-beta, TR-FRET coactivator assay, read-out: Activity category Assay 1 (EC50, THR-beta agonist); for Emax: Table 5, Assay 1, THRβ, read-out: Activity category Assay 1 THRβ (Emax). The procedure, abridged:
(§1)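 Agonist-driven coactivator recruitment measured by TR-FRET: terbium anti-GST antibody (2 nM) bound to GST-LBD of TRβ or TRα (1 nM final, stated for β), with fluorescein SRC2-2 peptide at 200 nM. Compounds at 1% DMSO. Read after 1 h, room temperature, protected from light.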

Test [2] has as its target T2, human thyroid receptor alpha ligand-binding domain (LBD) (Homo sapiens, UniProt P10827).
T2 construct: purchased Invitrogen
The experiment in a line: TR-FRET thyroid receptor alpha coactivator assay (THR biochemical assay, Assay 1). The note with it: for EC50: Table 4, THR-alpha, read-out: Activity category Assay 1 (EC50, THR-alpha agonist activity); for Emax: Table 5, THRα, read-out: Activity category Assay 1 THRα (Emax). In outline: as §1
On the technique in general: TR-FRET usually uses a lanthanide donor and a delayed reading to cut background.

For the next test, the target named is T3, THR beta (Homo sapiens, UniProt P10828).
T3 construct: expressed in transfected cells; host or cells: HEK293T (ATCC CRL-3216)
T3 sequence (P10828 1-461): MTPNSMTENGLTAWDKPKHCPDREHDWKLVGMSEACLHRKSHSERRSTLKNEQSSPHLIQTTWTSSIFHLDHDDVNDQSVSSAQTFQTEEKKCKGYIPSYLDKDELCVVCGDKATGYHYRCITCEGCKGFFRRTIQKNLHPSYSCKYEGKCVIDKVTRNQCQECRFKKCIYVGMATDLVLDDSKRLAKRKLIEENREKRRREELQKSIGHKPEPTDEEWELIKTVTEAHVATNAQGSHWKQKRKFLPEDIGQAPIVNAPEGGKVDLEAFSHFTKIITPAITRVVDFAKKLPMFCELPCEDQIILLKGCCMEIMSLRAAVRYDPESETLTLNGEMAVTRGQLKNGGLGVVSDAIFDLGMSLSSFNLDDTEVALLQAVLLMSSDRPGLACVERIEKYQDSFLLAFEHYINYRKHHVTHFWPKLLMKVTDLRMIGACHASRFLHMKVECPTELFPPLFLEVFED
T3 sequence (P19793 1-462 partner): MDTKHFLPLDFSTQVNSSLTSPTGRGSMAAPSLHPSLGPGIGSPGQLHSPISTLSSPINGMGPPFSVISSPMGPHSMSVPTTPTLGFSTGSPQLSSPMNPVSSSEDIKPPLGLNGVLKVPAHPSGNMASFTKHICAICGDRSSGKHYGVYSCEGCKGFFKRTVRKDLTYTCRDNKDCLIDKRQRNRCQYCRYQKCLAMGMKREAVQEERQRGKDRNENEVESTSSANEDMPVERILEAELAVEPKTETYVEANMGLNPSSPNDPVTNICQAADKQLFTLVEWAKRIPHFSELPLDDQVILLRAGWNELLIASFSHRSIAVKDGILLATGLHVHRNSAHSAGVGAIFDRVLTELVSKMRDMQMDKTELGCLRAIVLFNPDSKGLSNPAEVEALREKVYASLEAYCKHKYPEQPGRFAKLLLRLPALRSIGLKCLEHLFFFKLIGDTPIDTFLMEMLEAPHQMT
As to the kind of experiment: HEK293T THR beta/RXR luciferase reporter assay (Assay 2). It counts as cell-based. The conditions noted are these: for Emax: HEK-293T, Table 5, Assay 2, THRβ, read-out: Activity category Assay 2 THRβ (Emax); for EC50: THR-beta, HEK293T reporter assay, read-out: Activity category Assay 2 (EC50, THR-beta agonist). In outline: (§2)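 Compounds tested as ten-point five-fold dilution series for 18-24 h on transiently transfected HEK293T cells carrying TRE-driven luciferase plus RXR and either THR alpha or beta expression plasmids. Read-out by One-Glo luminescence, expressed as percent agonism relative to negative and positive controls.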
(In general: Reporter assays use an easily measured gene product as a stand-in for the process of interest.)

For another test, the target named is T4, THR alpha (Homo sapiens, UniProt P10827).
T4 construct: expressed in transfected cells; host or cells: HEK293T (ATCC CRL-3216)
T4 sequence (P10827 1-410 isoform P10827-2): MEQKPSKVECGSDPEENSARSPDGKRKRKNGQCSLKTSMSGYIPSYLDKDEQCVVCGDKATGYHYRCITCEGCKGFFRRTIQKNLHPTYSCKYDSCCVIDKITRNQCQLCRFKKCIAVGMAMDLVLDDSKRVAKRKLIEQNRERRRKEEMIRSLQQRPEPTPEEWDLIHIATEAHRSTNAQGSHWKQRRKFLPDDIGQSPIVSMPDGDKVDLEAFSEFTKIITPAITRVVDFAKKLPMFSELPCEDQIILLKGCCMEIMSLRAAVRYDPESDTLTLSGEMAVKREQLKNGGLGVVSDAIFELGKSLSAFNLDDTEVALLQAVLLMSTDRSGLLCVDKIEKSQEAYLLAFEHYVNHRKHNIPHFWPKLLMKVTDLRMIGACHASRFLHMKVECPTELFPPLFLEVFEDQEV
T4 sequence (P19793 1-462 partner): T3 sequence (P19793 1-462 partner)
The experiment in a line: HEK293T THR alpha/RXR luciferase reporter assay (Assay 2). It counts as cell-based. The conditions noted are these: Assay 2; for Emax: HEK-293T, Table 5, THRα, read-out: Activity category Assay 2 THRα (Emax); for EC50: Table 4, THR-alpha, read-out: Activity category Assay 2 (EC50, THR-alpha agonist activity). In outline: as §2

As usually defined, the EC50 is the concentration needed to bring the measured effect to its halfway point. Usually Emax stands for the maximal effect, on the per cent scale that the assay sets.

As for `Nc1nn(-c2cc(Cl)c(Oc3cc(-c4cccc(Cl)c4)c(=O)[nH]n3)c(Cl)c2)c(=O)[nH]c1=O` [Compound 68, 6-Amino-2-(3,5-dichloro-4-((5-(3-chlorophenyl)-6-oxo-1,6-dihydropyridazin-3-yl)oxy)phenyl)-1,2,4-triazine-3,5(2H,4H)-dione], the concentration for a half-maximal effect (EC50) is less than 50 nM in test [1], 50 to 250 nM in test [2], less than 50 nM on THR beta and 50 to 250 nM on THR alpha. Moreover, the Emax in test [1] was 50 to 75%; in test [2] it was less than 50%; at THR beta it was greater than 75%; on THR alpha, 50 to 75%.

For the compound `CO[C@H]1C[C@H](c2cc(Oc3c(Cl)cc(-n4nc(N)c(=O)[nH]c4=O)cc3Cl)n[nH]c2=O)C1` [Compound 102], the concentration giving a half-maximal response (EC50) in test [1] was 1000 to 25000 nM; in test [2] it was 1000 to 25000 nM; at THR beta, 1000 to 10000 nM; on THR alpha, greater than 10000 nM. The maximal effect (Emax) (in test [1]; in test [2]; at THR beta; on THR alpha) was less than 50% in each case.

Turning to `Nc1nn(-c2cc(Cl)c(Oc3ccc4c(c3)C3(CC3)C(=O)N4)c(Cl)c2)c(=O)[nH]c1=O` [Compound 143], the EC50 (in test [1]; in test [2]; at THR beta; on THR alpha) was less than 50 nM in each case. Moreover, the maximal response (Emax) in test [1] is 50 to 75%; in test [2] it was greater than 75%; on THR beta it was greater than 75%; at THR alpha, greater than 75%.

For the compound `O=c1cc(-c2ccc3c(c2)CCCC3)c(Oc2c(Cl)cc(-n3ncc(=O)[nH]c3=O)cc2Cl)n[nH]1` [Compound 91-A, 2-(3,5-dichloro-4-((6-oxo-4-(5,6,7,8-tetrahydronaphthalen-2-yl)-1,6-dihydropyridazin-3-yl)oxy)phenyl)-1,2,4-triazine-3,5(2H,4H)-dione], the EC50 was less than 50 nM in test [1], 1000 to 25000 nM in test [2], 50 to 250 nM on THR beta and greater than 10000 nM at THR alpha. In addition, the Emax is less than 50% in test [1], less than 50% in test [2], 50 to 75% at THR beta and less than 50% at THR alpha.

As for `CC(C)Cc1c[nH]c2ccc(Oc3c(Cl)cc(-n4nc(C#N)c(=O)[nH]c4=O)cc3Cl)cc12` [Compound 49, 2-(3,5-dichloro-4-[[3-(2-methylpropyl)-1H-indol-5-yl]oxy]phenyl)-3,5-dioxo-4H-1,2,4-triazine-6-carbonitrile], the EC50 is less than 50 nM in test [1], less than 50 nM in test [2], 250 to 1000 nM at THR beta and 250 to 1000 nM on THR alpha. For the same compound, the Emax in test [1] is less than 50%; in test [2], less than 50%; on THR beta, greater than 75%; on THR alpha, less than 50%.

On to `N#CC1CCC1c1cc(Oc2c(Cl)cc(-n3nc(N)c(=O)[nH]c3=O)cc2Cl)n[nH]c1=O` (stereo not drawn) [Compound 104], for which the EC50 in test [1] was 250 to 1000 nM; in test [2] it was 1000 to 25000 nM; at THR beta, 1000 to 10000 nM; on THR alpha it was greater than 10000 nM. Also, the maximal response (Emax) in test [1] was less than 50%; in test [2], 50 to 75%; on THR beta it was 50 to 75%; at THR alpha it was less than 50%.

`N#Cc1nn(-c2cc(Cl)c(Oc3ccc4[nH]cc(CC5CC5)c4c3)c(Cl)c2)c(=O)[nH]c1=O` [Compound 50, 2-(3,5-dichloro-4-[[3-(cyclopropylmethyl)-1H-indol-5-yl]oxy]phenyl)-3,5-dioxo-4H-1,2,4-triazine-6-carbonitrile]: the EC50 was less than 50 nM in test [1], less than 50 nM in test [2], 50 to 250 nM at THR beta and 250 to 1000 nM on THR alpha. Further, the maximal effect (Emax) in test [1] was 50 to 75%; in test [2] it was 50 to 75%; at THR beta, greater than 75%; at THR alpha it was greater than 75%.

For the compound `Cc1cc(-c2cc(Oc3c(Cl)cc(-n4nc(N)c(=O)[nH]c4=O)cc3Cl)n[nH]c2=O)ccc1Cl` [Compound 116], the EC50 was 50 to 250 nM in test [1], greater than 25000 nM in test [2], 50 to 250 nM on THR beta and greater than 10000 nM on THR alpha. In addition, the maximal response (Emax) (in test [1]; in test [2]; on THR beta; at THR alpha) was less than 50% throughout.

For the compound `Cc1ccc(-c2cc(=O)[nH]nc2Oc2c(Cl)cc(-n3nc(N)c(=O)[nH]c3=O)cc2Cl)cc1C` [Compound 113], the concentration for a half-maximal effect (EC50) is 50 to 250 nM in test [1], 250 to 1000 nM in test [2], 250 to 1000 nM at THR beta and greater than 10000 nM at THR alpha. Also, the Emax (in test [1]; in test [2]; at THR beta; at THR alpha) was less than 50% in each case.

Regarding `Nc1nn(-c2cc(Cl)c(Oc3cc(-c4cccc(OC(F)F)c4)c(=O)[nH]n3)c(Cl)c2)c(=O)[nH]c1=O` [Compound 118], the concentration for a half-maximal effect (EC50) in test [1] was less than 50 nM; in test [2], 50 to 250 nM; on THR beta, less than 50 nM; at THR alpha, 50 to 250 nM. Further, the Emax is 50 to 75% in test [1], less than 50% in test [2], 50 to 75% on THR beta and 50 to 75% on THR alpha.

As to `Cc1cc(-n2nc(C#N)c(=O)[nH]c2=O)cc(C)c1Cc1ccc2[nH]cc(C(C)C)c2c1` [Compound 3, 2-(4-((3-isopropyl-1H-indol-5-yl)methyl)-3,5-dimethylphenyl)-3,5-dioxo-2,3,4,5-tetrahydro-1,2,4-triazine-6-carbo-nitrile], the EC50 in test [1] was less than 50 nM; in test [2], greater than 25000 nM; at THR beta, 50 to 250 nM; on THR alpha it was 250 to 1000 nM. Besides, the maximal response (Emax) in test [1] is 50 to 75%; in test [2], less than 50%; at THR beta, greater than 75%; on THR alpha, greater than 75%.

Turning to `Cc1cc(-n2ncc(=O)[nH]c2=O)cc(C)c1Cc1ccc2c(c1)C1(CC1)C(=O)N2` [Compound 152, 2-(3,5-dimethyl-4-((2′-oxospiro[cyclopropane-1,3′-indolin]-5′-yl)methyl)phenyl)-1,2,4-triazine-3,5(2H,4H)-dione], the EC50 (in test [1]; in test [2]; on THR beta; at THR alpha) was less than 50 nM each time. For the same compound, the Emax in test [1] was less than 50%; in test [2], 50 to 75%; at THR beta it was 50 to 75%; on THR alpha, 50 to 75%.
